Measured values taken from patent US10787441B2, “Hepatitis C virus inhibitors” (priority 2016, dated 2020).
Like-named read-outs stand apart in the source and are kept apart here.

Key:
Type in all cases: cell-based, Hepatitis C virus
[1] = system: HCV 1aY93H mutant replicon; experiment: HCV replicon assay, genotype 1a Y93H mutant
Method: General procedure: The luciferase replicon transient transfection assay measures the ability of a test compound to inhibit the replication of a transiently-transfected HCV luciferase-bearing wild-type or mutant replicon in cured human hepatoma cells (Huh7.5). The inhibition of HCV replication was measured by quantification of luciferase protein expression. This assay has been validated using a panel of genotype 1a and 1b replicons bearing mutations known to be associated with resistance to BMS-790052. Briefly, subconfluent Huh7.5 cells were electroporated with 10 μg of wild-type or mutant luciferase-bearing HCV replicon RNA. The cells were then seeded in 96-well opaque white plates at 3×10^4 cells/well in 150 μL/well and incubated for 4 hrs at 37° C./5% CO2. Ten 1:5 serial dilutions of each test compound were made in media (DMEM containing glucose, L-glutamine and sodium pyruvate, 10% fetal bovine serum, 100 IU/mL penicillin, 100 μg/mL streptomycin, 2 mM GlutaMAX, and 1×MEM non-essential amino acids (Mediatech, Inc. and Invitrogen Corp.)) at concentrations that were 4× higher than the final concentrations to be tested and 50 μL/well was added to the transfected cells. Untreated, mock-transfected cells served as a negative control of luciferase expression. The plates were incubated at 37° C./5% CO2 for 4 days whereupon the media was removed and 50 μL of ONE-glo luciferase substrate (Promega) was added to each well. The plates were agitated on a rotating platform at room temperature for 3 min and read in a Victor^3V microplate reader (Perkin-Elmer) using a 700 nm cut-off filter with a 1 sec read time. EC50 values were calculated from dose response curves from the resulting best-fit equations determined by Microsoft Excel and XLfit 4.1 software.

[2] = system: HCV genotype 1b Con1 strain subgenomic luciferase replicon; experiment: HCV replicon assay, genotype 1b
Method: (§1) The HCV luciferase replicon assay measures the ability of a test compound to inhibit HCV replication in cell culture after 3 days of treatment in a human hepatoma cell line (Huh-7) bearing an HCV replicon containing a luciferase-neomycin phosphotransferase fusion gene. The inhibition of HCV replication was measured by quantification of luciferase protein expression. Briefly, Huh-7 cells containing either the HCV genotype 1a H77 strain or genotype 1b Con1 strain subgenomic luciferase replicon (H1a-luc or Zluc, respectively) were grown in DMEM containing glucose, L-glutamine and sodium pyruvate, 10% fetal bovine serum (FBS), 100 IU/mL penicillin, 100 μg/mL streptomycin, 2 mM GlutaMAX, non-essential amino acids and 0.25 (H1a-luc) or 0.5 (Zluc) mg/mL G418. GlutaMAX was obtained from Invitrogen, Corp.; all other media reagents were obtained from Mediatech, Inc. For dose-response testing, the cells were seeded in 96-well plates at 1×10^4 (H1a-luc) or 7.5×10^3 (Zluc) cells/well in a volume of 50 μL, and incubated at 37° C./5% CO2. Three hours after plating, 50 μL of ten 5-fold serial dilutions of compound were added, and cell cultures were incubated at 37° C./5% CO2 for 72 hours. In all cases, Huh-7 cells lacking the HCV replicon served as negative control. To assess luciferase expression, the media/compound was removed from the plates and ONE-glo Luciferase assay reagent (Promega) was added to each well. The assay plates were shaken for 3 minutes at room temperature and luciferase activity for each well was measured with a 1 sec read time on the Victor^3V multilabel counter using a 700 nm cut-off filter (Perkin Elmer). EC50 values were calculated from dose response curves from the resulting best-fit equations determined by Microsoft Excel and XLfit 4.1 software.

[3] = system: HCV genotype 1a H77 strain subgenomic luciferase replicon; experiment: HCV replicon assay, genotype 1a
Method: as §1

[4] = system: HCV genotype 3a NS5A within the 1b-replicon; experiment: HCV replicon assay, genotype 3a (NS5A intergenotypic stable cell line)
Excerpt: The nucleotide sequences of the NS5A region of genotype 2a (GenBank Accession # AB047639), genotype 3a (GenBank Accession # D17763), and genotype 4a (GenBank Accession # DQ418788) were synthesized by an outside vendor. The NS5A region of each of these genotypes included the first 11 amino acids of the protease recognition sequence of genotype 1b, as well as the last 10 amino acids of genotype 1b. The NS5A gene cassettes were excised with site specific restriction endonucleases and ligated into a ZS11-luciferase genotype 1b backbone (backbone contains the genotype 1b NS3 protease, NS4a, NS4b, and NS5b coding regions) with similarly cut restriction enzyme sites. Thus, the newly constructed plasmid contains a genotype 2a-, 3a- or 4a-specific NS5A gene within the 1b-replicon.
These new intergenotypic plasmids were used to establish stable cell lines. RNA was generated from the NS5A intergenotypic plasmids and used in conjunction with a lipofectin reagent to transfect a cured Huh7 cell line. Transfected cells were selected for with G418. After selection has occurred the stable cell lines were propagated, tested for luciferase activity, and RT-PCR with genotype specific primers (either 1a, 2a, 3a, or 4a). Stable cell lines containing the intergenotypic replicon were then fully sequenced and analyzed for proper expression of NS3, NS5A and NS5B proteins.
Drug titration analysis was performed using the luciferase replicon assay described herein.
as §1

HCV 2b = experiment: HCV replicon assay, genotype 2b
[5] = Hepatitis C virus, read-out: 1aY93H IC50 (nM), HCV genotype 1a, Y93H mutant
[6] = read-out: 1a IC50, HCV genotype 1a
[7] = Hepatitis C virus, read-out: 3a IC50 (nM), HCV genotype 3a
[8] = read-out: 2b IC50, HCV genotype 2b
[9] = read-out: 1aY93H IC50, HCV genotype 1a, Y93H mutant
[10] = read-out: 3a IC50, HCV genotype 3a
[11] = Hepatitis C virus, read-out: 1a IC50 (nM), HCV genotype 1a
[12] = Hepatitis C virus, read-out: 2b IC50 (nM), HCV genotype 2b

Row | Compound | IC50 [1, 5] [nM] | IC50 [2] [nM] | IC50 [3, 6] [nM] | IC50 [4, 7] [nM] | IC50 (HCV 2b; [8]) [nM] | IC50 [1, 9] [nM] | IC50 [4, 10] [nM] | IC50 ([2]; Hepatitis C virus) [nM] | IC50 [3, 11] [nM] | IC50 (HCV 2b; [12]) [nM]
1 | COC(=O)N[C@H](C(=O)N1CCC[C@H]1c1ncc(-c2ccc3c(c2)Oc2ccc4cc(-c5cnc([C@@H]6CCCN6C(=O)[C@@H](NC(=O)OC)C(C)C)[nH]5)ccc4c2C3C)[nH]1)C(C)C (single isomer, unassigned) [Compound 2] | 10.6 | 0.0036 | 0.0046 | 1.38 | 37.1 | – | – | – | – | –
2 | COC(=O)N[C@H](C(=O)N1CCC[C@H]1c1ncc(-c2ccc3c(c2)Oc2ccc4cc(-c5cnc([C@@H]6CCCN6C(=O)[C@@H](NC(=O)OC)C(C)C)[nH]5)ccc4c2C3C)[nH]1)C(C)C (single isomer, unassigned) [Compound 3] | – | 0.0016 | 0.0022 | – | 1.95 | 7.15 | 0.721 | – | – | –
3 | COC(=O)N[C@H](C(=O)N1CCC[C@H]1c1ncc(-c2ccc3c(c2)Oc2ccc4cc(-c5cnc([C@@H]6CCCN6C(=O)[C@@H](NC(=O)OC)C6CCOCC6)[nH]5)ccc4c2C3C)[nH]1)C1CCOCC1 (single isomer, unassigned) [Compound 11] | 0.391 | – | – | 0.038 | 0.016 | – | – | 0.0044 | 0.0037 | –
4 | COC(=O)N[C@H](C(=O)N1CCC[C@H]1c1ncc(-c2ccc3c(c2)Oc2ccc4cc(-c5cnc([C@@H]6CCCN6C(=O)[C@@H](NC(=O)OC)C6CCOCC6)[nH]5)ccc4c2C3C)[nH]1)C1CCOCC1 (single isomer, unassigned) [Compound 12] | – | 0.0056 | 0.0045 | – | 0.495 | 0.548 | 0.055 | – | – | –
5 | CCC1c2ccc(-c3cnc([C@@H]4CCCN4C(=O)[C@@H](NC(=O)OC)C4CCOCC4)[nH]3)cc2Oc2ccc3cc(-c4cnc([C@@H]5CCCN5C(=O)[C@@H](NC(=O)OC)C5CCOCC5)[nH]4)ccc3c21 (single isomer, unassigned) [Compound 15] | – | – | 0.0098 | – | – | 0.826 | 0.218 | 0.0036 | – | 0.292
6 | CCC1(CC)c2ccc(-c3cnc([C@@H]4CCCN4C(=O)[C@H](NC(=O)OC)C(C)C)[nH]3)cc2Oc2cc3ccc(-c4cnc([C@@H]5CCCN5C(=O)[C@@H](NC(=O)OC)C(C)C)[nH]4)cc3cc21 [Compound 9, methyl [(1R)-1-({(2S)-2-[5-(12,12-diethyl-9-{2-[(2S)-1-{(2S)-2-[(methoxycarbonyl)amino]-3-methylbutanoyl}pyrrolidin-2-yl]-1H-imidazol-5-yl}-12H-benzo[b]xanthen-3-yl)-1H-imidazol-2-yl]pyrrolidin-1-yl}carbonyl)-2-methylpropyl]carbamate] | 3.28 | – | – | 1.11 | – | – | – | – | 0.002 | 4.53
7 | COC(=O)N[C@H](C(=O)N1CCC[C@H]1c1ncc(-c2ccc3c(c2)Oc2ccc4cc(-c5cnc([C@@H]6CCCN6C(=O)[C@@H](NC(=O)OC)C6CCOCC6)[nH]5)ccc4c2C3(C)C)[nH]1)C1CCOCC1 [Compound 13, dimethyl [(12,12-dimethyl-12H-benzo[a]xanthene-3,9-diyl)bis{1H-imidazole-5,2-diyl(2S)pyrrolidine-2,1-diyl[(1S)-2-oxo-1-(tetrahydro-2H-pyran-4-yl)ethane-2,1-diyl]}]biscarbamate] | 0.682 | – | – | 0.084 | – | – | – | 0.004 | 0.0023 | 0.254
8 | CCC1(CC)c2ccc(-c3cnc([C@H]4CCCN4C(=O)[C@@H](NC(=O)OC)C4CCOCC4)[nH]3)cc2Oc2ccc3cc(-c4cnc([C@H]5CCCN5C(=O)[C@H](NC(=O)OC)C5CCOCC5)[nH]4)ccc3c21 [Compound 16, methyl [(1R)-2-[(2R)-2-{5-[12,12-diethyl-9-(2-{(2R)-1-[(2S)-2-[(methoxycarbonyl)amino]-2-(tetrahydro-2H-pyran-4-yl)acetyl]pyrrolidin-2-yl}-1H-imidazol-5-yl)-12H-benzo[a]xanthen-3-yl]-1H-imidazol-2-yl}pyrrolidin-1-yl]-2-oxo-1-(tetrahydro-2H-pyran-4-yl)ethyl]carbamate] | 0.072 | – | – | 0.015 | – | – | – | 0.0044 | 0.0036 | 0.032
9 | COC(=O)N[C@H](C(=O)N1CCC[C@H]1c1ncc(-c2ccc3c(ccc4oc5cc(-c6cnc([C@@H]7CCCN7C(=O)[C@@H](NC(=O)OC)C7CCOCC7)[nH]6)ccc5c(=O)c43)c2)[nH]1)C1CCOCC1 [Compound 30, dimethyl [(12-oxo-12H-benzo[a]xanthene-3,9-diyl)bis{1H-imidazole-5,2-diyl(2S)pyrrolidine-2,1-diyl[(1S)-2-oxo-1-(tetrahydro-2H-pyran-4-yl)ethane-2,1-diyl]}]biscarbamate] | 2.03 | – | – | 0.722 | – | – | – | – | 0.0416 | 0.481
10 | CCN(CC)[C@@H](C(=O)N1C[C@H](F)C[C@H]1c1ncc(-c2ccc3c(ccc4oc5cc(-c6cnc([C@@H]7C[C@@H](F)CN7C(=O)[C@@H](c7ccccc7)N(CC)CC)[nH]6)ccc5c(=O)c43)c2)[nH]1)c1ccccc1 [Compound 31, 3,9-bis(2-{(2S,4R)-1-[(2R)-2-(diethylamino)-2-phenylacetyl]-4-fluoropyrrolidin-2-yl}-1H-imidazol-5-yl)-12H-benzo[a]xanthen-12-one] | 506 | – | – | 0.0262 | – | – | – | – | 0.31 | 797
11 | COC(=O)N[C@H](C(=O)N1C[C@H](F)C[C@H]1c1ncc(-c2ccc3c(ccc4oc5cc(-c6cnc([C@@H]7C[C@@H](F)CN7C(=O)[C@@H](NC(=O)OC)C7CCOCC7)[nH]6)ccc5c(=O)c43)c2)[nH]1)C1CCOCC1 [Compound 32, dimethyl [(12-oxo-12H-benzo[a]xanthene-3,9-diyl)bis{1H-imidazole-5,2-diyl[(2S,4R)-4-fluoropyrrolidine-2,1-diyl][(1S)-2-oxo-1-(tetrahydro-2H-pyran-4-yl)ethane-2,1-diyl]}]biscarbamate] | 0.18 | – | – | 5.84 | – | – | – | – | 0.0841 | 3.47
